From patent publication EP0927179B1, “SUBSTITUTED BENZOCYCLOHEPTAPYRIDINE DERIVATIVES USEFUL FOR INHIBITION OF FARNESYL PROTEIN TRANSFERASE” (SCHERING CORPORATION, priority 1996, dated 1998)
Values belong to the compound of their own block, whether it stands above or below them.

Assays:
[1] = target: T1, farnesyl protein transferase (Homo sapiens, UniProt P49354+P49356); test: FPT IC50 (H-ras), inhibition of farnesyl protein transferase, in vitro enzyme assay; format: biochemical
Experimental: (§1) FPT IC50 (inhibition of farnesyl protein transferase, in vitro enzyme assay) and COS Cell IC50 (Cell-Based Assay) were determined following the assay procedures described in WO 95/10516, published April 20, 1995. GGPT IC50 (inhibition of geranylgeranyl protein transferase, in vitro enzyme assay), Cell Mat Assay, and anti-tumor activity (in vivo anti-tumor studies) could be determined by the assay procedures described in WO 95/10516. The disclosure of WO 95/10516 is incorporated herein by reference thereto.

[2] = target: T1, farnesyl protein transferase; test: FPT IC50 (K-ras), inhibition of farnesyl protein transferase, in vitro enzyme assay; format: biochemical
Experimental: as §1

[3] = system: Human tumor cells; test: Soft Agar Assay (anchorage-independent growth); format: cell-based
Experimental: Anchorage-independent growth is a characteristic of tumorigenic cell lines. Human tumor cells are suspended in growth medium containing 0.3% agarose and an indicated concentration of a farnesyl transferase inhibitor. The solution is overlayed onto growth medium solidified with 0.6% agarose containing the same concentration of farnesyl transferase inhibitor as the top layer. After the top layer is solidified, plates are incubated for 10-16 days at 37°C under 5% CO2 to allow colony outgrowth. After incubation, the colonies are stained by overlaying the agar with a solution of MTT (3-[4,5-dimethyl-thiazol-2-yl]-2,5-diphenyltetrazolium bromide, Thiazolyl blue) (1 mg/mL in PBS). Colonies can be counted and the IC50's can be determined.

[4] = system: COS Cell; test: COS Cell IC50 (Cell-Based Assay)
Experimental: as §1

T1 sequence (P49356 whole entry, one chain of several): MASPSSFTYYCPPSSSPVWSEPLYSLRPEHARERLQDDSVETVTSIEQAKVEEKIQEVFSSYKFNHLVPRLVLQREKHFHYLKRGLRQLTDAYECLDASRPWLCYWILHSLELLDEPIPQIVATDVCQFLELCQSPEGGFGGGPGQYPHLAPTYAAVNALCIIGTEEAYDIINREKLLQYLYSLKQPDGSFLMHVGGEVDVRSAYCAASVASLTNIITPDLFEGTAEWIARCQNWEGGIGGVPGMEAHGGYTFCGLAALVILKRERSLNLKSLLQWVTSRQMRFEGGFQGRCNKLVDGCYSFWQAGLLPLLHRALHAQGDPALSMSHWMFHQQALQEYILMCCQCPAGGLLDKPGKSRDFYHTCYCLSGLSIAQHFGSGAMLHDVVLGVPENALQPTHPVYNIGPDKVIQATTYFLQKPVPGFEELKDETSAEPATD

IC50 [1]: 80 nM
Structure (SMILES): NS(=O)(=O)N1CCC(CC(=O)N2CCN(C3c4ccc(Cl)cc4CCc4cc(Br)cnc43)CC2)CC1 (stereo not shown) [Example 16]

Structure (SMILES): CC1(C)C2CCC1(CS(=O)(=O)N1CCC(CC(=O)N3CCC([C@H]4c5ncc(Br)cc5CCc5cc(Cl)cc(Br)c54)CC3)CC1)C(=O)C2 (stereo partly shown) [Example 11]
IC50 [1]: 34.8 nM

Structure (SMILES): Cn1cnc(S(=O)(=O)N2CCC(CC(=O)N3CCC([C@H]4c5ncc(Br)cc5CCc5cc(Cl)cc(Br)c54)CC3)CC2)c1 [Example 14]
IC50 [1]: 5.7 nM
IC50 [2]: 23 nM

Structure (SMILES): O=C(CC1CCN(S(=O)(=O)c2ccccc2)CC1)N1CCC([C@H]2c3ncc(Br)cc3CCc3cc(Cl)cc(Br)c32)CC1 [Example 1]
IC50 [1]: 72 nM

IC50 [1]: 54 nM
Structure (SMILES): CS(=O)(=O)N1CCC(CC(=O)N2CCN(C3c4ccc(Cl)cc4CCc4cc(Br)cnc43)CC2)CC1 (stereo not shown) [Example 15]

inhibition at […] ([1]; @73 nM, read-out: FPT inhibition (H-ras) at a single concentration): 34%
Structure (SMILES): O=C(CC1CCN(S(=O)(=O)c2ccc(-c3ccccn3)s2)CC1)N1CCC([C@H]2c3ncc(Br)cc3CCc3cc(Cl)cc(Br)c32)CC1 [Example 12]

IC50 [3]: 250 nM
Structure (SMILES): CCCS(=O)(=O)N1CCC(CC(=O)N2CCC([C@H]3c4ncc(Br)cc4CCc4cc(Cl)cc(Br)c43)CC2)CC1 [Example 7]
IC50 [4]: 30 nM

Structure (SMILES): O=C(CC1CCN(S(=O)(=O)c2cccs2)CC1)N1CCC([C@H]2c3ncc(Br)cc3CCc3cc(Cl)cc(Br)c32)CC1 [Example 13]
IC50 [1]: 20 nM

Structure (SMILES): O=C(CC1CCN(S(=O)(=O)Cc2ccccc2)CC1)N1CCC([C@H]2c3ncc(Br)cc3CCc3cc(Cl)cc(Br)c32)CC1 [Example 9]
IC50 [4]: 350 nM

IC50 [3]: 100 nM
IC50 [1]: 7.3 nM
IC50 [2]: 10 nM
Structure (SMILES): CN(C)S(=O)(=O)N1CCC(CC(=O)N2CCC([C@H]3c4ncc(Br)cc4CCc4cc(Cl)cc(Br)c43)CC2)CC1 [Example 3]
IC50 [4]: 9 nM

IC50 [3]: 50 nM
Structure (SMILES): CS(=O)(=O)N1CCC(CC(=O)N2CCC([C@H]3c4ncc(Br)cc4CCc4cc(Cl)cc(Br)c43)CC2)CC1 [Example 2]
